Results as given in paper PMC7478165, “Derivatisation of parthenolide to address chemoresistant chronic lymphocytic leukaemia” (MedChemComm, 2019).
Where two headings read alike, the source gives them in different places.

Legend:
MEC1 CLL cell line [1] = experiment: alamarBlue assay, in vitro antileukaemic activity against MEC1 CLL cell line; type: cell-based
Source text: Defective p53-signalling increases genomic instability and drives tumour progression. A high frequency of p53 inactivation is found in relapsed, treatment-resistant, high risk CLL.[30] […] Owing to resource availability a subset of up to ten of these compounds was prioritised for further investigation. Compounds 2d, 2e, 2j, 2aa, 5a, 5d, 5e, 5f, 5ab and 6b were selected on the basis of reasons including ease of synthetic access, diversity across the chemical space probed and novelty. Those prepared under conditions (i)Scheme 1 (2d, 5a and 6b) were available on a scale and in a purity to directly permit follow-up studies, whereas compounds prepared under conditions (ii)Scheme 1 were prepared on a small scale so were resynthesised. These seven compounds (2e, 2j, 2aa, 5d, 5e, 5f and 5ab) were isolated on >30 mg scale in high purity and progressed to more following studies.
Following the identification of 5f as the most promising drug-like derivative of PTL from the aforementioned parallel/high-throughput screening, the anti-leukaemic activity of 5f was tested once more and compared directly with that of PTL (1) and DMAPT (2a), which serve as comparators and positive controls.
Amine 7 was successfully prepared as follows: 4-Piperidinecarboxylic acid was N-Boc protected to deliver 8 in 92% yield.[43] In order to confidently assign the NMR spectra of compound 8 J-MOD, HSQC and ^1H–^1H COSY were helpful, particularly in establishing that a broad resonance in the proton-decoupled ^13C NMR spectrum, centred on 42.8 ppm, corresponds to the ring-carbons bonded to nitrogen. The carboxylic acid of 8 was converted to the corresponding ethyl-3-keto-propanoate 9 in 24% yield. Conversion of 9 to the N-Boc protected congener 10, was achieved by treatment with acetamidine hydrochloride and potassium carbonate, furnishing 10 in 77% yield. Treatment with trifluoroacetic acid delivered desired compound 7 in 99% yield for the Boc-deprotection step (scale 200 mg, 17% over four linear steps). Thus, evidencing accessibility of amine 7 and with it in hand, it was timely to probe any activity arising from the amine alone. MEC1 sensitivity to 1, 5f and 7 was compared in parallel using the alamarBlue® assay (Fig. 6). […] A pre-peer-reviewed preprint of this article was deposited and may be viewed elsewhere.[44]

[2] = Stability in aqueous solution, pH 7.4; type: physicochemical; conditions: for half-life: pH 7.4, read-out: Stability pH 7.4 T1/2; for stability in aqueous solution: result in words
Description: Compounds 2d, 2e, 2f, 2g, 2j, 2aa, 5a, 5d, 5e, 5f, 5ab and 6b were subjected to in vitro DMPK testing. […] The other three (2d, 2j and 2aa) were not retained for further investigation due to poor stability (T1/2 at pH 7.4: 13, 107 and 76 min, Table 1, entries 1, 3 and 4 respectively). One obvious aspect contributing to observed stability is the propensity for PTL derivatives of this type to undergo a retro-amination (reverse-Michael-type mechanism), indeed this reverse reaction is often claimed as a pro-drug mode of action.[29a],[33] […] It is a reasonable assertion that activity observed for these unstable compounds could well be ascribed to free PTL generated rapidly in the assay.

[3] = Microsomal stability assay (mouse); conditions: for Mouse microsomal stability: mouse microsomes; for microsomal CLint: mouse, liver microsomes
[4] = Caco-2 permeability assay; type: in vitro ADME; conditions: human; for efflux ratio: Caco-2, pH 7.4
MEC1 CLL cell line [5] = experiment: cells; design: alamarBlue (resazurin reduction) viability assay in MEC1 CLL cells; conditions: Homo sapiens, MEC1, 24 h; read-out: alamarBlue EC50 (uM) average
Source text: Defective p53-signalling increases genomic instability and drives tumour progression. A high frequency of p53 inactivation is found in relapsed, treatment-resistant, high risk CLL.[30] […] Owing to resource availability a subset of up to ten of these compounds was prioritised for further investigation. Compounds 2d, 2e, 2j, 2aa, 5a, 5d, 5e, 5f, 5ab and 6b were selected on the basis of reasons including ease of synthetic access, diversity across the chemical space probed and novelty. Those prepared under conditions (i)Scheme 1 (2d, 5a and 6b) were available on a scale and in a purity to directly permit follow-up studies, whereas compounds prepared under conditions (ii)Scheme 1 were prepared on a small scale so were resynthesised. These seven compounds (2e, 2j, 2aa, 5d, 5e, 5f and 5ab) were isolated on >30 mg scale in high purity and progressed to more following studies. Biological efforts at Sygnature Discovery (where differing to University of Birmingham) MEC1 cells were obtained from the American Type Culture Collection (Manassas, VA 20110 USA) and were routinely cultured in RPMI 1640 medium (Sigma-Aldrich) supplemented with 1% L-glutamine (Sigma-Aldrich), 1% Penicillin/Streptomycin (Sigma-Aldrich) and 10% FBS (Gibco). The MEC1 proliferation assay was conducted by performing a re-feed of the MEC1 cells 24 h prior to cell seeding. On the day of the assay, cells were seeded into a 384-well assay plate at a density of 12,500 cells/well in 25 μL of complete MEC1 medium. Compound treatment was performed on the day of cell seeding, with compounds prepared as duplicate compound response curves (final DMSO concentration of 0.6%). Post compound treatment, MEC1 assay plates were returned to a 37 °C/5% CO2 incubator for 24 h of incubation. Following compound treatment, cellular viability was determined by measuring reduction of alamarBlue® reagent (Invitrogen). alamarBlue® reagent (2.5 μL) was added to each assay well to give a 1:10 dilution of the neat stock and assay plates were incubated for 3 h at 37 °C/5% CO2. Reduction of alamarBlue® was determined using an Envision Xcite plate reader (Perkin Elmer) with an excitation wavelength of 560 nm set and an emission wavelength of 590 nm set. Cell viability was determined by normalising raw fluorescent data to a cell only high control and Parthenolide treated low control to provide percentage viability readout. Data was plotted and EC50 values extracted and reported EC50s represent an average of at least two independent assays.

[6] = MEC1 cell line pEC50 minus calculated log P
[7] = MEC1 cell line, alamarBlue assay, library screen, read-out: EC50 ave.
[8] = first of two columns headed A to B
[9] = second of two columns headed A to B
[10] = Homo sapiens, MEC1, read-out: EC50 ave., MEC1 cell line, alamarBlue assay, library screen
[11] = Homo sapiens, MEC1, MEC1 cell line, alamarBlue assay, library screen, read-out: EC50 ave.

With `Cc1nc(O)cc(C2CCNCC2)n1` [Amine 7] the EC50 (MEC1 CLL cell line [1]; MEC1 cells, alamarBlue, 1, 5f and 7 compared in parallel, CalcuSyn) was “could not be determined”.

In the case of `CCN(CCO)C[C@@H]1C(=O)O[C@H]2[C@H]1CC/C(C)=C/CC[C@@]1(C)O[C@H]21` [C00001], the “Stability pH 7.4 T1/2” value [2] is reported as 13 min, the “LipE pEC50–clog P” value (MEC1 CLL cell line [1]; [6]) is reported as 3.31 and the EC50 (MEC1 CLL cell line [1]; [7]) is reported as 4.7 µM.

With `CCn1cc(CN(C[C@@H]2C(=O)O[C@H]3[C@H]2CC/C(C)=C/CC[C@@]2(C)O[C@H]32)C(C)C)cn1` [C00002] the half-life [2] was over 2 h, the Mouse microsomal stability [3, 8] was 828 and the Mouse microsomal stability [3, 9] was 2. For the same compound, the “LipE pEC50–clog P” value (MEC1 CLL cell line [1]; [6]) was 1.61 and the EC50 (MEC1 CLL cell line [1]; [7]) was 5.6 µM.

In the case of `COc1ccc(CN(C)C[C@@H]2C(=O)O[C@H]3[C@H]2CC/C(C)=C/CC[C@@]2(C)O[C@H]32)cc1OC` [C00003], the “Stability pH 7.4 T1/2” value [2] is reported as 107 min, the “LipE pEC50–clog P” value (MEC1 CLL cell line [1]; [6]) is reported as 1.48 and the EC50 (MEC1 CLL cell line [1]; [7]) is reported as 5.6 µM.

For `C/C1=C\CC[C@@]2(C)O[C@@H]2[C@H]2OC(=O)[C@@H](CN(C)CCc3ccccc3)[C@@H]2CC1` [C00004], the “Stability pH 7.4 T1/2” value [2] was 76 min, the “LipE pEC50–clog P” value (MEC1 CLL cell line [1]; [6]) was 2.52 and the EC50 (MEC1 CLL cell line [1]; [7]) was 5.9 µM.

Compound `C/C1=C\CC[C@@]2(C)O[C@@H]2[C@H]2OC(=O)[C@@H](CN3CCC(Oc4cccnc4)CC3)[C@@H]2CC1` [C00006] has a half-life [2] of over 2 h, a Mouse microsomal stability [3, 8] of 251 and a Mouse microsomal stability [3, 9] of 6. The “LipE pEC50–clog P” value (MEC1 CLL cell line [1]; [6]) was 2.48 and the EC50 (MEC1 CLL cell line [1]; [7]) was 5.4 µM.

In the case of `C/C1=C\CC[C@@]2(C)O[C@@H]2[C@H]2OC(=O)[C@@H](CN3CCC(O)(c4ccccc4)CC3)[C@@H]2CC1` [C00007], the half-life [2] is reported as over 2 h, the “LipE pEC50–clog P” value (MEC1 CLL cell line [1]) is reported as 1.90 and the EC50 (MEC1 CLL cell line [1]; [7]) is reported as 6 µM.

For `C/C1=C\CC[C@@]2(C)O[C@@H]2[C@H]2OC(=O)[C@@H](CN3CCC(OCc4cccnc4)CC3)[C@@H]2CC1` [C00009], the half-life [2] was over 2 h, the efflux ratio [4] was 0.8 and the Papp A→B ([4]; Caco-2, pH 7.4, A to B) was 10.9 ×10⁻⁶ cm/s. It also gave a Papp B→A ([4]; Caco-2, pH 7.4, B to A) of 9.1 ×10⁻⁶ cm/s, a Mouse microsomal stability [3, 8] of 128 and a Mouse microsomal stability [3, 9] of 11. For the same compound, the “LipE pEC50–clog P” value (MEC1 CLL cell line [1]; [6]) was 2.29 and the EC50 (MEC1 CLL cell line [1]; [7]) was 7.6 µM.

With `C/C1=C\CC[C@@]2(C)O[C@@H]2[C@H]2OC(=O)[C@@H](CN(C)CCc3ccccc3)[C@@H]2CC1` [Compound 2aa] the half-life [2] was 1.27 h and the EC50 (MEC1 CLL cell line [1]; [7]) was under 15 µM.

Compound `CC1=CCCC2(C)OC2C2OC(=O)C(CN(C)CCO)C2CC1` (stereo not drawn) [Compound 2c] has an EC50 (MEC1 CLL cell line [1]; [10]) of under 15 µM.

`CCN(CCO)C[C@@H]1C(=O)O[C@H]2[C@H]1CC/C(C)=C/CC[C@@]1(C)O[C@H]21` [Compound 2d] gave a half-life [2] of 0.217 h and an EC50 (MEC1 CLL cell line [1]; [7]) of under 15 µM.

With `CCn1cc(CN(C[C@@H]2C(=O)O[C@H]3[C@H]2CC/C(C)=C/CC[C@@]2(C)O[C@H]32)C(C)C)cn1` [Compound 2e] the “stability in aqueous solution” value [2] was “greater than two hours”, the microsomal CLint [3] was over 100 µL/min/mg and the EC50 (MEC1 CLL cell line [1]; [7]) was under 15 µM.

With `C/C1=C\CC[C@@]2(C)O[C@@H]2[C@H]2OC(=O)[C@@H](CN(CC3CC3)C(C)C)[C@@H]2CC1` [Compound 2f] the EC50 (MEC1 CLL cell line [5]) was 12.2 µM and the EC50 (MEC1 CLL cell line [1]; [11]) was under 15 µM.

For `C/C1=C\CC[C@@]2(C)O[C@@H]2[C@H]2OC(=O)[C@@H](CN(CCO)C3CCCCC3)[C@@H]2CC1` [Compound 2g], the EC50 (MEC1 CLL cell line [5]) was 10 µM and the EC50 (MEC1 CLL cell line [1]; [11]) was under 15 µM.

In the case of `COc1ccc(CN(C)C[C@@H]2C(=O)O[C@H]3[C@H]2CC/C(C)=C/CC[C@@]2(C)O[C@H]32)cc1OC` [Compound 2j], the EC50 (MEC1 CLL cell line [5]) is reported as 9.7 µM, the half-life [2] is reported as 1.78 h and the EC50 (MEC1 CLL cell line [1]; [7]) is reported as under 15 µM.

In the case of `CC1=CCCC2(C)OC2C2OC(=O)C(CSCCO)C2CC1` (stereo not drawn) [Compound 3], the “activity against the MEC1 CLL cell line” value (MEC1 CLL cell line [1]; result in words) is reported as “lack of activity”.

With `C/C1=C\CC[C@@]2(C)O[C@@H]2[C@H]2OC(=O)[C@@H](CN3CCC(OCc4cccnc4)CC3)[C@@H]2CC1` [Compound 5ab] the “stability in aqueous solution” value [2] was “greater than two hours”, the microsomal CLint [3] was over 100 µL/min/mg and the EC50 (MEC1 CLL cell line [1]; [11]) was under 15 µM.

In the case of `CC1=CCCC2(C)OC2C2OC(=O)C(CN3CCCCC3)C2CC1` (stereo not drawn) [Compound 5b], the “stability in aqueous solution” value [2] is reported as “greater than two hours” and the EC50 (MEC1 CLL cell line [1]; [10]) is reported as under 15 µM.

For `C/C1=C\CC[C@@]2(C)O[C@@H]2[C@H]2OC(=O)[C@@H](CN3CCC(Oc4cccnc4)CC3)[C@@H]2CC1` [Compound 5d], the “stability in aqueous solution” value [2] was “greater than two hours”, the microsomal CLint [3] was over 100 µL/min/mg and the EC50 (MEC1 CLL cell line [1]; [7]) was under 15 µM.

For `C/C1=C\CC[C@@]2(C)O[C@@H]2[C@H]2OC(=O)[C@@H](CN3CCC(c4ccc(C(N)=O)cc4)CC3)[C@@H]2CC1` [Compound 5h], the EC50 (MEC1 CLL cell line [5]) was 13.8 µM and the EC50 (MEC1 CLL cell line [1]; [11]) was under 15 µM.

With `C/C1=C\CC[C@@]2(C)O[C@@H]2[C@H]2OC(=O)[C@@H](CN[C@@H](Cc3ccccc3)C(=O)O)[C@@H]2CC1` [Compound 6b] the “stability in aqueous solution” value [2] was “greater than two hours”, the efflux ratio [4] was 2.7 and the microsomal CLint [3] was 9 µL/min/mg. The EC50 (MEC1 CLL cell line [1]; [11]) was under 15 µM.

With `C=C1C(=O)O[C@@H]2[C@H]3O[C@]3(C)CC/C=C(\C)CC[C@@H]12` [PTL, parthenolide] the EC50 (MEC1 CLL cell line [1]; Homo sapiens, MEC1, MEC1 cells, alamarBlue, 1, 5f and 7 compared in parallel, CalcuSyn, read-out: EC50) was 3.6 µM and the EC50 (MEC1 CLL cell line [1]; Homo sapiens, MEC1, MEC1 cells, alamarBlue, direct comparison of 5f with PTL and DMAPT, n = 5, read-out: EC50) was 6.2 µM.
